From patent US10611750B2, “Tetrahydroquinoline compositions as bet bromodomain inhibitors” (FORMA Therapeutics, Inc., priority 2013, dated 2020)
pIC50: −log10 of the molar value.

Assays:
[1] = target: T1, BRD4 Bromodomain 1 (BRD4 BD1) (Homo sapiens, UniProt O60885); experiment: AlphaScreen binding assay, BRD4 BD1; details: His-tagged BRD4 BD1 50 nM, biotinylated H4 (1-21) K5/8/12/16 tetra-acetylated peptide 50 nM, compounds listed under IC50 range headings
T1 construct: 44-168 and BRD4 BD2
Summary of the method: (§1)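 Compound dilution series were mixed with His-tagged BRD4 bromodomain and biotinylated tetra-acetylated H4 (1-21) peptide at pH 7.3 (BD1 and peptide at 50 nM, BD2 and peptide at 100 nM). Donor and acceptor beads were then added, and plates were equilibrated at least 1 h before reading. IC50 values were fitted with a four-parameter logistic model.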

[2] = target: T2, BRD4 Bromodomain 2 (BRD4 BD2) (Homo sapiens, UniProt O60885); experiment: AlphaScreen binding assay, BRD4 BD2; details: His-tagged BRD4 BD2 100 nM, biotinylated H4 (1-21) K5/8/12/16 tetra-acetylated peptide 100 nM, compounds listed under IC50 range headings
T2 construct: 333-460 were cloned, expressed, and purified to homogeneity
Summary of the method: as §1

[3] = system: acute myelocytic leukemia (AML) cell line MV4-11; experiment: Oncology cell growth assay (3-day proliferation, CellTiter-Glo); type: cell-based; details: Homo sapiens, MV4-11, 72 h, MV4-11 cells, 3000 cells/well, compounds listed under IC50 range headings, read-out: MV411 IC50 (gIC50, inhibition of proliferation)
Summary of the method: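 Luminescence from CellTiter-Glo served as the growth read-out after MV4-11 cells (3000/well) were cultured with compound for 72 hours. Final concentrations spanned 10 to 0.0045 μM in 3-fold steps. gIC50 values were derived by four-parameter logistic fitting relative to DMSO and cell-free controls.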

Row | Structure (SMILES) | pIC50 [1] | pIC50 [2] | pIC50 [3]
1 | COC(=O)N1c2ccc(-c3cnn(CCS(C)(=O)=O)c3)c(OCC3CCCC3)c2CC[C@@H]1C [I-459] | 6.00 to 7.00 | 6.30 to 7.30 | < 6.00
2 | COC(=O)N1c2ccc(-c3cnn(CC(C)(C)O)c3)c(OC3CCC3)c2CC[C@@H]1C [I-445] | 5.00 to 6.00 | > 7.30 | > 6.30
3 | CCCOc1c(C2CCN(C(C)=O)CC2)ccc2c1CC[C@H](C)N2C(C)=O [I-354, (S)-1-(4-(1-acetyl-2-methyl-5-propoxy-1,2,3,4-tetrahydroquinolin-6-yl)piperidin-1-yl)ethan-1-one] | ≤ 5.00 | ≤ 6.30 | < 6.00
4 | COC(=O)N1c2ccc(-c3cnn(C4CCNCC4)c3)c(Oc3ccc(Cl)cc3C#N)c2CC[C@@H]1C [I-132, (S)-methyl 5-(4-chloro-2-cyanophenoxy)-2-methyl-6-(1-(piperidin-4-yl)-1H-pyrazol-4-yl)-3,4-dihydroquinoline-1(2H)-carboxylate] | 6.00 to 7.00 | > 7.30 | > 6.30
5 | COC(=O)N1c2ccc(-c3cnn([C@@H]4CCNC[C@@H]4F)c3)c(OC3CCC3)c2CC[C@@H]1C [I-361, methyl (S)-5-cyclobutoxy-6-(1-((3S,4R)-3-fluoropiperidin-4-yl)-1H-pyrazol-4-yl)-2-methyl-3,4-dihydroquinoline-1(2H)-carboxylate] | > 7.00 | > 7.30 | > 6.30
6 | COC(=O)N1c2ccc(-c3cnn(C4CN(C)C4)c3)c(Oc3ccc(F)cc3)c2CC[C@@H]1C [I-282, Methyl (S)-5-(4-fluorophenoxy)-2-methyl-6-(1-(1-methylazetidin-3-yl)-1H-pyrazol-4-yl)-3,4-dihydroquinoline-1(2H)-carboxylate] | 6.00 to 7.00 | > 7.30 | > 6.30
7 | CC(=O)N1c2ccc(-c3cnn(CCS(C)(=O)=O)c3)c(OCC3CCCC3)c2CC[C@@H]1C [I-424] | 6.00 to 7.00 | > 7.30 | > 6.30
8 | CC(=O)N1c2ccc(-c3ccc(N(C)S(C)(=O)=O)cc3)c(OCC(=O)N(C)C)c2CC[C@@H]1C [I-503] | 5.00 to 6.00 | 6.30 to 7.30 | –
9 | COC(=O)N1c2ccc(-c3cnn(C4CC4)c3)c(OCC3(CO)COC3)c2CC[C@@H]1C [I-32, (S)-methyl 6-(1-cyclopropyl-1H-pyrazol-4-yl)-5-((3-(hydroxymethyl)oxetan-3-yl)methoxy)-2-methyl-3,4-dihydroquinoline-1(2H)-carboxylate] | 5.00 to 6.00 | 6.30 to 7.30 | –
10 | COC(=O)N1c2ccc(-c3cnn(C4CC4)c3)c(OCC3(F)COC3)c2CC[C@@H]1C [I-65, (S)-methyl 6-(1-cyclopropyl-1H-pyrazol-4-yl)-5-((3-fluorooxetan-3-yl)methoxy)-2-methyl-3,4-dihydroquinoline-1(2H)-carboxylate] | 5.00 to 6.00 | 6.30 to 7.30 | –
11 | CC(=O)N1c2ccc(-c3ccc(S(C)(=O)=O)cc3)c(OCC(=O)N(C)C)c2CC[C@@H]1C [I-483] | 5.00 to 6.00 | ≤ 6.30 | –
12 | CC(=O)N1c2ccc(-c3cnn(CC(C)(C)O)c3)c(OC[C@H]3CCC(=O)N3)c2CC[C@@H]1C [I-433] | 5.00 to 6.00 | 6.30 to 7.30 | –
13 | CCCOc1c(-c2cccc(C(=O)N3CCOCC3)c2)ccc2c1CC[C@H](C)N2C(C)=O [I-488] | 5.00 to 6.00 | 6.30 to 7.30 | –
14 | CC(=O)N1c2ccc(-c3cnn(C4CC4)c3)c(OCS(N)(=O)=O)c2CC[C@@H]1C [I-45, (S)-(1-acetyl-6-(1-cyclopropyl-1H-pyrazol-4-yl)-2-methyl-1,2,3,4-tetrahydroquinolin-5-yloxy)methanesulfonamide] | ≤ 5.00 | ≤ 6.30 | –
15 | COC(=O)N1c2ccc(-c3cnn(C4CC4)c3)c(OC(CF)CF)c2CC[C@@H]1C [I-15, (S)-methyl 6-(1-cyclopropyl-1H-pyrazol-4-yl)-5-(1,3-difluoropropan-2-yloxy)-2-methyl-3,4-dihydroquinoline-1(2H)-carboxylate] | 5.00 to 6.00 | 6.30 to 7.30 | –
16 | COC(=O)N1c2ccc(-c3cnn(C4CC4)c3)c(OCC(F)F)c2CC[C@@H]1C [I-10, (S)-methyl 6-(1-cyclopropyl-1H-pyrazol-4-yl)-5-(2,2-difluoroethoxy)-2-methyl-3,4-dihydroquinoline-1(2H)-carboxylate] | 5.00 to 6.00 | 6.30 to 7.30 | –
17 | CC(=O)N1c2ccc(-c3cnn(C4CC4)c3)c(OCc3nc4ccccc4o3)c2CC[C@@H]1C [I-481] | ≤ 5.00 | ≤ 6.30 | –
18 | CC(=O)N1c2ccc(-c3cnn(C4CCNCC4)c3)c(OCCN(C)S(C)(=O)=O)c2CC[C@@H]1C [I-439] | 5.00 to 6.00 | 6.30 to 7.30 | –
19 | COC(=O)N1c2ccc(-c3cnn(C4CC4)c3)c(OCCN3CCCC3=O)c2CC[C@@H]1C [I-25, (S)-methyl 6-(1-cyclopropyl-1H-pyrazol-4-yl)-2-methyl-5-(2-(2-oxopyrrolidin-1-yl)ethoxy)-3,4-dihydroquinoline-1(2H)-carboxylate] | 5.00 to 6.00 | 6.30 to 7.30 | –
20 | CC(=O)N1c2ccc(-c3cnn(C4CC4)c3)c(OCC#N)c2CC[C@@H]1C [I-397] | 5.00 to 6.00 | 6.30 to 7.30 | –

Row | Structure (SMILES) | pIC50 [1] | pIC50 [2] | pIC50 [3]
21 | CC(=O)N1c2ccc(-c3cnn(CCS(C)(=O)=O)c3)c(OCC(=O)N3CCCC3)c2CC[C@@H]1C [I-428] | 5.00 to 6.00 | 6.30 to 7.30 | –
22 | COC(=O)N1c2ccc(-c3cnn(C4CC4)c3)c(OCC(C)(C)F)c2CC[C@@H]1C [I-16, (S)-methyl 6-(1-cyclopropyl-1H-pyrazol-4-yl)-5-(2-fluoro-2-methylpropoxy)-2-methyl-3,4-dihydroquinoline-1(2H)-carboxylate] | 5.00 to 6.00 | 6.30 to 7.30 | –
23 | COC(=O)N1c2ccc(-c3cnn(CC(C)(C)O)c3)c(OCC(=O)N3CCCC3)c2CC[C@@H]1C [I-464] | 5.00 to 6.00 | 6.30 to 7.30 | –
24 | CC(=O)N1c2ccc(-c3cnn(C4CC4)c3)c(OCc3ccno3)c2CC[C@@H]1C [I-381] | 5.00 to 6.00 | 6.30 to 7.30 | –
25 | COC(=O)N1c2ccc(-c3cnn(C4CCNCC4)c3)c(OC[C@H]3CCNC3)c2CC[C@@H]1C [I-477] | 5.00 to 6.00 | 6.30 to 7.30 | –
26 | CCCOc1c(-c2cnn(CCS(C)(=O)=O)c2)ccc2c1CC[C@H](C)N2C(=O)OC [I-441] | 5.00 to 6.00 | 6.30 to 7.30 | –
27 | COC(=O)N1c2ccc(-c3cnn(CC(C)(C)O)c3)c(OC[C@H]3CCC(=O)N3)c2CC[C@@H]1C [I-468] | 5.00 to 6.00 | 6.30 to 7.30 | –
28 | CC(=O)N1c2ccc(-c3cnn(C4COC4)c3)c(Oc3nc4ccccc4o3)c2CC[C@@H]1C [I-79, (S)-1-(5-(benzo[d]oxazol-2-yloxy)-2-methyl-6-(1-(oxetan-3-yl)-1H-pyrazol-4-yl)-3,4-dihydroquinolin-1(2H)-yl)ethanone] | 6.00 to 7.00 | 6.30 to 7.30 | –
29 | COC(=O)N1c2ccc(-c3cnn(CCO)c3)c(OCC(=O)N(C)C)c2CC[C@@H]1C [I-3, (S)-methyl 5-(2-(dimethylamino)-2-oxoethoxy)-6-(1-(2-hydroxyethyl)-1H-pyrazol-4-yl)-2-methyl-3,4-dihydroquinoline-1(2H)-carboxylate] | 5.00 to 6.00 | 6.30 to 7.30 | –
30 | COC(=O)N1c2ccc(-c3cnn(C4CCNCC4)c3)c(OCC(=O)N(C)C)c2CC[C@@H]1C [I-454] | 5.00 to 6.00 | 6.30 to 7.30 | –
31 | COC(=O)N1c2ccc(-c3cnn(C4CC4)c3)c(OCC(C)(F)F)c2CC[C@@H]1C [I-12, (S)-methyl 6-(1-cyclopropyl-1H-pyrazol-4-yl)-5-(2,2-difluoropropoxy)-2-methyl-3,4-dihydroquinoline-1(2H)-carboxylate] | ≤ 5.00 | ≤ 6.30 | –
32 | CNC(=O)COc1c(-c2cnn(C3COC3)c2)ccc2c1CC[C@H](C)N2C(C)=O [I-378] | 5.00 to 6.00 | 6.30 to 7.30 | –
33 | CCCOc1c(-c2ccc(N3CCCS3(=O)=O)cc2)ccc2c1CC[C@H](C)N2C(C)=O [I-498] | 5.00 to 6.00 | 6.30 to 7.30 | –
34 | CC(=O)N1c2ccc(-c3cnn(CCO)c3)c(OCC(=O)N(C)C)c2CC[C@@H]1C [I-2, (S)-2-(1-acetyl-6-(1-(2-hydroxyethyl)-1H-pyrazol-4-yl)-2-methyl-1,2,3,4-tetrahydroquinolin-5-yloxy)-N,N-dimethylacetamide] | 5.00 to 6.00 | 6.30 to 7.30 | –
35 | CC(=O)N1c2ccc(-c3cnn(C4CC4)c3)c(OCC(=O)N(C)C3CC3)c2CC[C@@H]1C [I-6, (S)-2-(1-acetyl-6-(1-cyclopropyl-1H-pyrazol-4-yl)-2-methyl-1,2,3,4-tetrahydroquinolin-5-yloxy)-N-cyclopropyl-N-methylacetamide] | 5.00 to 6.00 | ≤ 6.30 | –
36 | CC(=O)N1c2ccc(-c3cnn(C4CC4)c3)c(OCC(N)=O)c2CC[C@@H]1C [I-391] | 5.00 to 6.00 | ≤ 6.30 | –
37 | COC(=O)N1c2ccc(-c3cnn(CC(C)(C)O)c3)c(OCC3CCCC3)c2CC[C@@H]1C [I-460] | 5.00 to 6.00 | 6.30 to 7.30 | –
38 | CCNC(=O)COc1c(-c2cnn(C3CC3)c2)ccc2c1CC[C@H](C)N2C(=O)OC [I-21, (S)-methyl 6-(1-cyclopropyl-1H-pyrazol-4-yl)-5-(2-(ethylamino)-2-oxoethoxy)-2-methyl-3,4-dihydroquinoline-1(2H)-carboxylate] | ≤ 5.00 | 6.30 to 7.30 | –
39 | CCCOc1c(-c2ccc(NS(C)(=O)=O)cc2)ccc2c1CC[C@H](C)N2C(C)=O [I-494] | 5.00 to 6.00 | 6.30 to 7.30 | –
